Assay results as given in paper PMC4965013, “Open Source Drug Discovery with the Malaria Box Compound Collection for Neglected Diseases and Beyond” (PLoS Pathogens, 2016).
Like-named read-outs stand apart in the source and are kept apart here. Each block holds one compound with its values, some of them ahead of it.

Experiments:
P. falciparum Dd2 = test: Malaria Sybr Green I Fluorescence assay Dd2 Horrocks; type: cell-based; settings: Plasmodium falciparum, DD2, 48 h; read-out: P. falciparum Dd2 asexual blood stage EC50 Horrocks
Description: Column S: Horrocks group (data presented first in this paper). Asexual Dd2 inhibition of growth (IC50s): IC50 for the Dd2 clone of Plasmodium falciparum were determined using the Malaria Sybr Green I Fluorescence assay. Drug assays were initiated using a 2% trophozoite stage parasitaemia and 2% hematocrit and fluorescence measured after 48 h as fully described in Hasenkamp et al.[53]. Log dose-response curves were plotted in GraphPad Prism (v5.0). The controls for Dd2 using our 48hr Sybr Green I assay were (rounded to nearest nM): Chloroquine 209nM, Mefloquine 11nM, Quinine 246nM, Dihydroartemisinin 4nM, Artemether 10nM, Atovaquone 3nM.

[1] = test system: P. falciparum 3D7 trophozoites; test: Metabolomic fingerprint profiling LC-MS; type: cell-based, Plasmodium falciparum; parameters: UDP-D-glucose / ADP-D-glucose: unit not given here
P. falciparum = test: EC50 listed in S2 Table Metabolomics (used to set the concentration tested); type: cell-based; settings: Plasmodium falciparum; EC50 used for Factor_XEC50 in metabolomics; read-out: EC50_nM
P. falciparum HB3 = test: Stage-specificity / mitochondrial integrity image assay Ayong; type: cell-based; settings: 10µM
Chromera velia = Chromera velia flagellation motility assay
[2] = test system: Naegleria fowleri trophozoites; test: Naegleria fowleri CellTiter-Glo; type: cell-based
Text: Columns CY-CZ: Kyle group (data presented first in this paper). Naegleria fowleri trophozoite growth inhibition. Methods: The CellTiter-Glo (CTG) 2.0 luminescent assay is a quantitative assay that assesses the presence of cellular ATP in lysed cells, displaying an output in Relative Light Units (RLU’s). This was previously standardised, for the growth and development of Naegleria fowleri trophozoites in-vitro to assess drug susceptibility on this parasite. […] These included two drug-like molecules MMV665807 (St. Jude’s Children’s Hospital) and MMV665979 (The Genomics Institute of the Novartis Research Foundation - GNF) and two Probe-like molecules, MMV006203 (GNF) & MMV006172 (GNF; GlaxoSmithKline - GSK). […] However, these Malaria Box compounds were all toxic to zebrafish and mammalian cells.

[3] = test system: HIV-1 JR-FL or HIV-1 NL4-3 viruses; test: HIV-1 viral production p24 ELISA; type: cell-based; settings: 10µM
Description: (§1) Columns FK-GB, Moore group (data presented first in this paper). HIV and HIV-producing cell lines, toxicity and viral suppression. […] MMV compounds were incubated with HIV-1 JR-FL or HIV-1 NL4-3 pseudoviruses and U87-CD4-CCR5 or U87-CD4-CXCR4 cells (obtained through the NIH AIDS Reagent Program, Division of AIDS, NIAID, NIH: U87 CD4+CCR5+ Cells from Dr. HongKui Deng and Dr. Dan R. Littman) respectively for 3 days. Cells were assayed for infection by luciferase production (Bright-Glo Luciferase Substrate, Promega) and cell viability by MTT assay. […] MMV compounds were next incubated with HIV-1 JR-FL or HIV-1 NL4-3 viruses and U87-CD4-CCR5 or U87-CD4-CXCR4 cells respectively for 7 days. Cell supernatants were assayed for viral production by p24 ELISA [153] and cell viability by MTT assay. […] DMSO (5%) was completely toxic to all cells (based on visual inspection) and served as the positive control for MTT assays.

[4] = test system: HIV-1 JR-FL or HIV-1 NL4-3 pseudoviruses; test: HIV-1 pseudovirus infection luciferase; type: cell-based; settings: 10µM
Description: as §1

P. falciparum 3D7 or K1 = test: Asexual Blood Stage Imaging Assay (DAPI) V. Avery; type: cell-based
[5] = test system: P. falciparum NF54 GFP-Pfs16 gametocytes stage IV-V; settings: ref [71]; cited from earlier work
[6] = test system: P. falciparum NF54 GFP-Pfs16 gametocytes stage I-III; settings: ref [71]; cited from earlier work
[7] = metabolite level change after treatment
[8] = Plasmodium falciparum, read-out: P. falciparum 3D7 asexual blood stage EC50 (Image) V. Avery
[9] = Plasmodium falciparum, read-out: P. falciparum K1 asexual blood stage EC50 (Image) V. Avery

- EC50 (P. falciparum Dd2): 11 nM
Compound: OC(c1cc(C(F)(F)F)nc2c(C(F)(F)F)cccc12)C1CCCCN1 (stereo not drawn) [Mefloquine]

- EC50 (P. falciparum Dd2): 3 nM
- EC50 (P. falciparum): 1 nM
Compound: O=C1C(O)=C([C@H]2CC[C@H](c3ccc(Cl)cc3)CC2)C(=O)c2ccccc21 [Atovaquone, reference compound]
- Acetyllysine ([1]; S2 Table Metabolomics, metabolite Acetyllysine): -0.04735
- N-acetyl-L-ornithine ([1]; S2 Table Metabolomics, metabolite N-acetyl-L-ornithine): -0.04174
- N-carbamoyl-L-aspartate ([1]; S2 Table Metabolomics, metabolite N-carbamoyl-L-aspartate): 3.574
- NADPH ([1]; S2 Table Metabolomics, metabolite NADPH): 0.3866
- dAMP ([1]; S2 Table Metabolomics, metabolite dAMP): -0.09487
- dCMP ([1]; S2 Table Metabolomics, metabolite dCMP): 0.3344
- dTDP ([1]; S2 Table Metabolomics, metabolite dTDP): -0.7104
- dTMP ([1]; S2 Table Metabolomics, metabolite dTMP): -0.4179
- dTTP ([1]; S2 Table Metabolomics, metabolite dTTP): -0.8198
- dihydroorotate ([1]; S2 Table Metabolomics, metabolite dihydroorotate): 4.214
- orotate ([1]; S2 Table Metabolomics, metabolite orotate): -0.07211
- DLH ([1]; S2 Table Metabolomics, peptide DLH): -0.06109
- DLS/SDL/SID ([1]; S2 Table Metabolomics, peptide DLS/SDL/SID): -0.04893
- PD ([1]; S2 Table Metabolomics, peptide PD): 0.1235
- PEE ([1]; S2 Table Metabolomics, peptide PEE): -0.1722
- PVNF ([1]; S2 Table Metabolomics, peptide PVNF): -0.41
- 3-phosphoglycerate ([1]; metabolite 3-phosphoglycerate, S2 Table Metabolomics): 0.03739
- ADP-D-glucose ([1]; metabolite ADP-D-glucose, S2 Table Metabolomics): 0.08423
- ATP ([1]; metabolite ATP, S2 Table Metabolomics): 0.06271
- CDP ([1]; metabolite CDP, S2 Table Metabolomics, change in metabolite level after compound treatment): -0.5138
- D-sedoheptulose-1/7-phosphate ([1]; metabolite D-sedoheptulose-1/7-phosphate, S2 Table Metabolomics, change in metabolite level after compound treatment): 0.1418
- FAD ([1]; metabolite FAD, S2 Table Metabolomics): 0.1027
- GMP ([1]; metabolite GMP, S2 Table Metabolomics, change in metabolite level after compound treatment): 0.1184
- NAD+ ([1]; metabolite NAD+, S2 Table Metabolomics): 0.1854
- NADP+ ([1]; metabolite NADP+, S2 Table Metabolomics): 0.1184
- Octoluse Bisphosphate ([1]; metabolite Octoluse Bisphosphate, S2 Table Metabolomics, change in metabolite level after compound treatment): -0.059
- Pyroglutamic acid ([1]; metabolite Pyroglutamic acid, S2 Table Metabolomics): 0.08924
- UDP-D-glucose ([1]; metabolite UDP-D-glucose, S2 Table Metabolomics): 0.001015
- UDP-D-glucuronate ([1]; metabolite UDP-D-glucuronate, S2 Table Metabolomics): -0.0616
- UDP-N-acetyl-glucosamine ([1]; metabolite UDP-N-acetyl-glucosamine, S2 Table Metabolomics): -0.1593
- UDP ([1]; metabolite UDP, S2 Table Metabolomics, change in metabolite level after compound treatment): -0.7439
- UMP ([1]; metabolite UMP, S2 Table Metabolomics, change in metabolite level after compound treatment): -0.8555
- UTP ([1]; metabolite UTP, S2 Table Metabolomics, change in metabolite level after compound treatment): -1.1527
- a-ketoglutarate ([1]; metabolite a-ketoglutarate, S2 Table Metabolomics): -0.0182
- citrate/isocitrate ([1]; metabolite citrate/isocitrate, S2 Table Metabolomics, change in metabolite level after compound treatment): -0.0966
- cytidine ([1]; metabolite cytidine, S2 Table Metabolomics): 0.2964
- dATP ([1]; metabolite dATP, S2 Table Metabolomics): 0.2506
- dGMP/AMP ([1]; metabolite dGMP/AMP, S2 Table Metabolomics, change in metabolite level after compound treatment): -0.116
- fumarate ([1]; metabolite fumarate, S2 Table Metabolomics, change in metabolite level after compound treatment): 0.379
- glucose-1/6-phosphate ([1]; metabolite glucose-1/6-phosphate, S2 Table Metabolomics, change in metabolite level after compound treatment): 0.3695
- glycerate ([1]; metabolite glycerate, S2 Table Metabolomics, change in metabolite level after compound treatment): 0.1345
- guanine ([1]; metabolite guanine, S2 Table Metabolomics, change in metabolite level after compound treatment): 0.3762
- guanosine ([1]; metabolite guanosine, S2 Table Metabolomics, change in metabolite level after compound treatment): 0.6121
- hypoxanthine ([1]; metabolite hypoxanthine, S2 Table Metabolomics): 0.2162
- indole ([1]; metabolite indole, S2 Table Metabolomics): 0.1728
- inosine ([1]; metabolite inosine, S2 Table Metabolomics, change in metabolite level after compound treatment): 0.1672
- 2_3-Diphosphoglyceric acid [1, 7]: -0.09802
- 4-phosphopantothenate [1, 7]: -0.2334
- 6-phospho-D-gluconate [1, 7]: 0.01237
- FMN [1, 7]: -0.003621
- IMP [1, 7]: 0.3101
- Pyrophosphate [1, 7]: -0.1571
- Sedoheptoluse bisphosphate [1, 7]: 0.01404
- cyclic-AMP [1, 7]: -0.03093
- glutathione disulfide [1, 7]: 0.00323
- lactate [1, 7]: 0.02673
- myo-inositol [1, 7]: 0.3272
- nicotinate ([1]; metabolite nicotinate, S2 Table Metabolomics): 0.1461
- ornithine ([1]; metabolite ornithine, S2 Table Metabolomics): 0.1076
- phosphoenolpyruvate ([1]; metabolite phosphoenolpyruvate, S2 Table Metabolomics): 0.02037
- pyruvate ([1]; metabolite pyruvate, S2 Table Metabolomics, change in metabolite level after compound treatment): -0.07747
- ribose-phosphate ([1]; metabolite ribose-phosphate, S2 Table Metabolomics): 0.1578
- sarcosine/alanine ([1]; metabolite sarcosine/alanine, S2 Table Metabolomics, change in metabolite level after compound treatment): -0.1241
- sn-glycerol-3-phosphate ([1]; metabolite sn-glycerol-3-phosphate, S2 Table Metabolomics): 0.1524
- succinate/methylmalonic acid ([1]; metabolite succinate/methylmalonic acid, S2 Table Metabolomics, change in metabolite level after compound treatment): -0.1814
- uridine ([1]; metabolite uridine, S2 Table Metabolomics, change in metabolite level after compound treatment): -0.1824
- xanthosine ([1]; metabolite xanthosine, S2 Table Metabolomics, change in metabolite level after compound treatment): 0.05904

Compound: CC(=O)N[C@@H]1[C@@H](O)[C@H](O)[C@@H](CO)O[C@H]1O [GlcNAC, N-acetylglucosamine, reference compound]
- Effects on asexual life cycle progression (treatment at ER, LR, T, S; merozoites; mitochondrial integrity) (P. falciparum HB3): LR-o-o-o-X-o

Compound: Oc1cc(Cl)ccc1Oc1ccc(Cl)cc1Cl [triclosan, reference compound]
- C. velia flagellation score (Chromera velia; 0.1 µM): +
- C. velia flagellation score (Chromera velia; 1µM): 0

Compound: FC(F)(F)c1cccc(CNC2CCN(CCc3ccccc3)CC2)c1 [MMV665979]
- Naegleria fowleri hit in words [2]: outstanding hit
- EC50 ([2]; Naegleria fowleri): 190 nM

Compound: Cc1cn([C@H]2C[C@H](N=[N+]=[N-])[C@@H](CO)O2)c(=O)[nH]c1=O [AZT, reference compound]
- viral infection by p24 production, positive control [3]: completely blocked viral infection
- viral infection by luciferase, positive control [4]: completely blocked viral infection

- EC50 (P. falciparum 3D7 or K1; [8]): 3 nM
- EC50 (P. falciparum 3D7 or K1; [9]): 5 nM
Compound: COc1ccc2nc3cc(Cl)ccc3c(Nc3cc(CN4CCCC4)c(O)c(CN4CCCC4)c3)c2n1 [pyronaridine]

- EC50 (P. falciparum Dd2): 10 nM
Compound: CO[C@H]1O[C@@H]2O[C@@]3(C)CC[C@H]4[C@H](C)CC[C@@H]([C@H]1C)[C@@]24OO3 [Artemether]

Compound: CC[C@H](C)[C@H](NC(=O)[C@H]([C@@H](C)CC)N(C)C(C)=O)C(=O)N[C@H](C(=O)N[C@@H](CC(C)C)C(=O)[C@@]1(C)CO1)[C@@H](C)O [epoxomicin]
- EC50 (P. falciparum 3D7 or K1; 3D7, read-out: P. falciparum 3D7 asexual blood stage EC50 (Image) V. Avery): 1 nM
- EC50 (P. falciparum 3D7 or K1; K1, read-out: P. falciparum K1 asexual blood stage EC50 (Image) V. Avery): 2 nM

- EC50 (P. falciparum Dd2): 246 nM
Compound: C=C[C@H]1C[N@@]2CC[C@H]1C[C@H]2[C@H](O)c1ccnc2ccc(OC)cc12 [Quinine]

Compound: CCc1nc(N)nc(N)c1-c1ccc(Cl)cc1 [pyrimethamine, reference compound]
- late gametocyte imaging, no activity at [5]: > 40 µM
- EC50 (P. falciparum 3D7 or K1; [8]): 2 nM
- EC50 (P. falciparum 3D7 or K1; [9]): 7200 nM
- early gametocyte imaging, no activity at [6]: > 40 µM
